Test results taken from publication PMC6733959, “Synthesis and Evaluations of Novel Apocynin Derivatives as Anti-Glioma Agents” (Frontiers in Pharmacology, 2019).

Experiments:
NADPH oxidase (NOX) [1] = experiment: NOX activity determination, U87 cells; type: cell-based, human; conditions: 20 and 50 μM
Protocol: (§1) The effects of candidate drug on NOX activities were measured using cytochrome c reductase (NADPH) Assay Kit (Sigma-Aldrich, St. Louis, MO, USA). Brieﬂy, after the compound treatment (20, 50 μM), the cells were collected and homogenized in an isotonic buffer ([…]), and centrifuged at 1,000 g to obtain the post-nuclear supernatants. Then 50μl samples were added to 950μl working solution (at 25°C) in a 1ml cuvette and mixed by inversion. Then 20μl cytochrome c oxidase inhibitor solution was added. After reaction with 100 μl NADPH solution, the cytochrome c absorbance was monitored at 550 nm by a spectrophotometer.

[2] = Transport experiment in the in vitro BBB cell model; type: in vitro ADME; conditions: Sprague-Dawley, rat, C0 20 μM, apical to basolateral, mean ± SD (n = 3-4), read-out: Papp × 10^−6
Protocol: (§2) Rat brain microvascular endothelial cells (BMECs) were separated from the cerebral cortex of 18-day-old male Sprague-Dawley rats as described previously ([Biegel et al., 1995]). Briefly, the cerebral cortical tissues were dissected from meninges after the rats were sacrificed, then the tissues were homogenated in physiological buffer solution (pH 7.4). After centrifugation, the pellets were collected, and the microvascular segments were then digested with 0.1% collagenase II at 37°C for 1 h. […] The second passage was used for co-culture of BBB cellular models.
Astrocytes were separated from the cerebral cortex of newborn Sprague-Dawley rats (1–2 days) as described previously ([Jeliazkova-Mecheva and Bobilya, 2003]). The brain tissues (removal of the meninges and blood vessel) were minced and mechanical homogenized and then digested with 0.25% trypsin-EDTA at 37°C for 10 min.
The in vitro BBB cell model was constructed in the Transwell 24well plate ([…], Millipore, USA). Before the experiment, the transwell filters were coated with matrigel matrix. The isolated rat astroglias were seeded onto one side of polycarbonate inserts (5 × 10^4 cells/insert). After 3 to 5 days, the rat BMECs were seeded at a density of 1.5 × 10^5 cells/insert onto the opposite side of the inserts to produce rat BMEC monolayers. The in vitro BBB cell model was formed 3 to 4 days. Trans-epithelial electrical resistance (TEER) measurements were performed everyday after the co-cultures formed until the TEER value increased to […] ([Yang et al., 2014]) ( Figure 2C ).
The transport experiments were performed by adding 400 μl HBSS containing the compounds to the apical side (AP), with 600μl HBSS to the basolateral side (BL) at the same time. Samples (60 μl) were collected from the BL chamber at the time points of 15, 30, 60, 90, 120, and 180 min, and the corresponding volume of HBSS buffer was immediately added into the BL chamber. The samples were precipitated by methanol, and the concentrations of the compounds in the samples were determined by high-performance liquid chromatography (HPLC). The HPLC conditions were as follows: Agilent TC-C18 column (250 × 4.6 mm; 5 μm), methanol 1% ethanoic acid mobile phase (from 10:90 to 90:10, v/v), with gradient elution at a flow rate of 1.0 ml/min. The detection wavelength was 275 nm for these compounds. The run time was 20 min. The apparent permeability coefficients (P app) were calculated from the following formula: P app = (∆Q/∆t)/(A × C 0), where ∆Q/∆t is the linear appearance rate of the compound on the BL side (μmol/s), A is the surface area of the cell monolayer (cm^2), and C 0 is the initial concentration of the drug on the AP side (μmol/L).

NADPH oxidase (NOX) [3] = experiment: NOX activity determination, C6 cells; type: cell-based, rat; conditions: 20 and 50 μM
Protocol: as §1

BMECs = experiment: MTT assay on normal BMECs (48 and 96 h); type: cell-based; conditions: Rattus norvegicus
Protocol: as §2
(§3) The anti-glioma effects of these compounds were evaluated by MTT assay in rat C6 glioma cells, human glioma U87 and U251 cells, and BMECs cells. Brieﬂy, cells were seeded at the density of 4,000 cells/well in 96-well plates overnight. For the first screening, the cells were incubated with 10, 20, 100 μM compounds for 48 h. Then cell viabilities were detected by MTT assay as described above. For the second screening, the cells were incubated with 6.25-, 12.5-, 25-, 50-, and 100μM compounds for 48 and 96 h, and then detected by MTT assay. The OD of each well was measured at 490 nm on an ELISA microplate reader. The inhibitory rates and IC50 values were calculated.

human glioma U87 cells = experiment: Anti-glioma MTT assay, U87 cells; type: cell-based; conditions: for IC50: Homo sapiens, U-87 MG, U87 cells
Protocol: as §3

[4] = tested on: NF-κB pathway-related proteins; experiment: Western blot of NF-κB pathway-related proteins, C6 cells; type: cell-based, rat; conditions: 20 and 50 μM, 48 h
Protocol: (§4) Briefly, after treatment with indicated concentrations of test compound (20, 50 μM) for 48 h, the cells were collected, and total cell lysates and nucleus fractions were extracted. Twenty micrograms of cellular protein were subjected to electrophoresis on 12% SDS-polyacrylamide gels and then transferred to polyvinylidene difluoride membranes. The membranes were first incubated with 5% BSA for 2 h at 37°C and then incubated with the first antibodies overnight at 4°C. After HRP-labeled secondary antibodies (1:1,000-dilution) incubation, protein bands were visualized with the enhanced chemiluminescence (ECL) detection solution. The intensity of bands was quantified using ImageJ 1.43 software (National Institutes of Health, Bethesda, MD, USA).

C6 cells = experiment: Apoptosis by Annexin V-FITC/PI staining, C6 cells; type: cell-based, rat; conditions: 48 h, mean ± SD
Protocol: The effects of test compound on apoptosis were detected by Annexin V-FITC/PI staining. Briefly, after treatment with indicated concentrations of test compounds (20, 50 μM) for 48 h, the cells were collected and resuspended in 500-μl detection buffer. Then 5μl PI and 5μl Annexin V-FITC were added to the detection buffer. Then, cells were incubated for 15 min in the dark and analyzed using Flow cytometer (Becton Dickinson) and WinMDI 2.8 software (Scripps Institute, La Jolla, CA, USA).

[5] = tested on: NF-κB pathway-related proteins; experiment: Western blot of NF-κB pathway-related proteins, U87 cells; type: cell-based, human; conditions: 20 and 50 μM, 48 h
Protocol: as §4

For `COc1cc(C(=O)CSCc2ccccc2Cl)ccc1O` [Compound D31, 2-((2-Chlorobenzyl)thio)-1-(4-Hydroxy-3-Methoxyphenyl)Ethan-1-One], the “Effect on NOX activities vs control” value (NADPH oxidase (NOX) [1]) was “no obvious effects”, the Papp at 90 min, 20 μM [2] was 12 ± 0.94 ×10⁻⁶ cm/s and the “Effect on NOX activities vs control” value (NADPH oxidase (NOX) [3]) was “no obvious effects”. For the same compound, the IC50 (BMECs; 48 h) was > 100 µM, the IC50 (BMECs; 96 h) was > 100 µM and the “Anti-proliferation effect on U87 cells (first screening)” value (human glioma U87 cells; 10, 20, 100 μM, 48 h, compared with D1, P < 0.05) was “significant anti-proliferation effects”. For the same compound, the IC50 (human glioma U87 cells; 48 h) was 23.5 µM, the IC50 (human glioma U87 cells; 96 h) was 21.5 µM and the IκBα expression [4] was “obviously decreased”. For the same compound, the “nucleus p-NF-κB p65 expression” value [4] was “obviously increased”, the p-IKKα/β expression [4] was “obviously increased” and the Apoptotic cell rate (C6 cells; 20 μM) was 27.9 ± 4.2%. For the same compound, the Apoptotic cell rate (C6 cells; 50 μM) was 32.2 ± 5.0%, the IκBα expression [5] was “obviously decreased” and the “nucleus p-NF-κB p65 expression” value [5] was “obviously increased”. The p-IKKα/β expression [5] was “obviously increased”.
